Measured values published in PubChem BioAssay (NCI).
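Five compound concentrations were applied to cells in 96-well plates for 48 hours; endpoints were derived by simple linear interpolation of the resulting dose-response curve. At the TGI there is no net growth.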

What was measured:
Assay in all cases: growth of human tumour cells (NCI), 48 h
[1] = test system: A549 NSCLC
[2] = test system: EKVX NSCLC
[3] = test system: M14 melanoma
[4] = test system: TK-10 renal
[5] = test system: RXF-631 renal
[6] = test system: SW-620 colon
[7] = test system: HT29 colon
[8] = test system: RPMI-8226 leukemia
[9] = test system: SNB-75 CNS
[10] = test system: SK-MEL-5 melanoma
[11] = test system: CCRF-CEM leukemia
[12] = test system: UO-31 renal
[13] = test system: OVCAR-3 ovarian
[14] = test system: SK-OV-3 ovarian
[15] = test system: UACC-257 melanoma
[16] = test system: SNB-19 CNS
[17] = test system: MALME-3M melanoma
[18] = test system: CAKI-1 renal
[19] = test system: HOP-62 NSCLC
[20] = test system: SK-MEL-2 melanoma
[21] = test system: K-562 leukemia
[22] = test system: ACHN renal
[23] = test system: HCC-2998 colon
[24] = test system: SNB-78 CNS
[25] = test system: NCI-H23 lung
[26] = test system: SN12C renal
[27] = test system: OVCAR-5 ovarian
[28] = test system: KM20L2 colon
[29] = test system: NCI-H226 lung
[30] = test system: NCI-H460 lung
[31] = test system: SF-539 CNS
[32] = test system: NCI-H522 lung
[33] = test system: DMS 114 small cell lung
[34] = test system: LOX IMVI melanoma
[35] = test system: SR leukemia
[36] = test system: UACC-62 melanoma
[37] = test system: SF-295 CNS
[38] = test system: IGROV1 ovarian
[39] = test system: MOLT-4 leukemia
[40] = test system: OVCAR-8 ovarian
[41] = test system: HCT-15 colon
[42] = test system: DLD-1 colon
[43] = test system: HOP-18 NSCLC
[44] = test system: HL-60(TB) leukemia
[45] = test system: DMS 273 small cell lung
[46] = test system: LXFL 529 NSCLC
[47] = test system: RXF 393 renal
[48] = test system: U251 CNS
[49] = test system: OVCAR-4 ovarian
[50] = test system: HCT-116 colon
[51] = test system: 786-0 renal
[52] = test system: A498 renal
[53] = test system: COLO 205 colon
[54] = test system: M19-MEL melanoma
[55] = test system: SF-268 CNS
[56] = test system: XF 498 CNS
[57] = test system: SK-MEL-28 melanoma
[58] = test system: HOP-92 NSCLC
[59] = test system: KM12 colon

## CCCC[n+]1ccn(-c2nc3ccccc3n2C)c1
[1]
  TGI: > 100 µM
[2]
  TGI: > 100 µM
[3]
  TGI: > 100 µM
[4]
  TGI: > 100 µM
[5]
  TGI: > 100 µM
[6]
  TGI: > 100 µM
[7]
  TGI: > 100 µM
[8]
  TGI: > 100 µM
[9]
  TGI: > 100 µM
[10]
  TGI: > 100 µM
[11]
  TGI: > 100 µM
[12]
  TGI: > 100 µM
[13]
  TGI: > 100 µM
[14]
  TGI: > 100 µM
[15]
  TGI: > 100 µM
[16]
  TGI: > 100 µM
[17]
  TGI: > 100 µM
[18]
  TGI: > 100 µM
[19]
  TGI: > 100 µM
[20]
  TGI: > 100 µM
[21]
  TGI: > 100 µM
[22]
  TGI: > 100 µM
[23]
  TGI: > 100 µM
[24]
  TGI: > 100 µM
[25]
  TGI: > 100 µM
[26]
  TGI: > 100 µM
[27]
  TGI: > 100 µM
[28]
  TGI: > 100 µM
[29]
  TGI: > 100 µM
[30]
  TGI: > 100 µM
[31]
  TGI: > 100 µM
[32]
  TGI: > 100 µM
[33]
  TGI: > 100 µM
[34]
  TGI: > 100 µM
[35]
  TGI: > 100 µM
[36]
  TGI: > 100 µM
[37]
  TGI: > 100 µM
[38]
  TGI: > 100 µM
[39]
  TGI: > 100 µM
[40]
  TGI: > 100 µM
[41]
  TGI: > 100 µM
[42]
  TGI: > 100 µM
[43]
  TGI: > 100 µM
[44]
  TGI: > 100 µM
[45]
  TGI: > 100 µM
[46]
  TGI: > 100 µM
[47]
  TGI: > 100 µM
[48]
  TGI: > 100 µM
[49]
  TGI: > 100 µM
[50]
  TGI: > 100 µM

## O=C(/C=C/c1ccc(-c2ccccc2)cc1)c1ccccc1
[1]
  TGI: 56.3 µM
[2]
  TGI: 50.8 µM
[51]
  TGI: 50.9 µM
[3]
  TGI: > 100 µM
[4]
  TGI: 82.6 µM
[5]
  TGI: 69 µM
[6]
  TGI: 42.7 µM
[7]
  TGI: 52.1 µM
[8]
  TGI: 61.8 µM
[9]
  TGI: > 100 µM
[10]
  TGI: 49 µM
[11]
  TGI: > 100 µM
[12]
  TGI: > 100 µM
[14]
  TGI: 58.5 µM
[15]
  TGI: > 100 µM
[52]
  TGI: 45.7 µM
[17]
  TGI: > 100 µM
[18]
  TGI: > 100 µM
[20]
  TGI: 33.6 µM
[21]
  TGI: > 100 µM
[53]
  TGI: 52.7 µM
[22]
  TGI: > 100 µM
[23]
  TGI: 33.7 µM
[24]
  TGI: > 100 µM
[54]
  TGI: 48.5 µM
[25]
  TGI: 41.8 µM
[26]
  TGI: > 100 µM
[27]
  TGI: 41 µM
[29]
  TGI: 49.3 µM
[30]
  TGI: 50.9 µM
[31]
  TGI: 32.2 µM
[32]
  TGI: 35.4 µM
[33]
  TGI: 31.8 µM
[34]
  TGI: 29.2 µM
[35]
  TGI: 87.1 µM
[36]
  TGI: 50 µM
[37]
  TGI: > 100 µM
[38]
  TGI: 69.1 µM
[39]
  TGI: > 100 µM
[40]
  TGI: 33.8 µM
[55]
  TGI: 70.1 µM
[41]
  TGI: 54.9 µM
[42]
  TGI: > 100 µM
[43]
  TGI: > 100 µM
[44]
  TGI: > 100 µM
[56]
  TGI: 53.1 µM
[46]
  TGI: 42.2 µM
[57]
  TGI: 67.5 µM
[58]
  TGI: 51.7 µM
[48]
  TGI: 58.5 µM
[49]
  TGI: > 100 µM
[59]
  TGI: 40.6 µM
[50]
  TGI: 30.2 µM

## CC1CCCc2c1n[nH]c2CC1CC(=O)NC(=O)C1 (stereo not given)
[1]
  TGI: > 100 µM
[2]
  TGI: > 100 µM
[51]
  TGI: > 100 µM
[3]
  TGI: > 100 µM
[4]
  TGI: > 100 µM
[5]
  TGI: > 100 µM
[6]
  TGI: > 100 µM
[7]
  TGI: > 100 µM
[8]
  TGI: > 100 µM
[9]
  TGI: > 100 µM
[11]
  TGI: > 100 µM
[12]
  TGI: > 100 µM
[13]
  TGI: > 100 µM
[14]
  TGI: > 100 µM
[15]
  TGI: > 100 µM
[52]
  TGI: > 100 µM
[16]
  TGI: > 100 µM
[17]
  TGI: > 100 µM
[18]
  TGI: > 100 µM
[19]
  TGI: > 100 µM
[21]
  TGI: > 100 µM
[53]
  TGI: > 100 µM
[22]
  TGI: > 100 µM
[23]
  TGI: > 100 µM
[24]
  TGI: > 100 µM
[54]
  TGI: > 100 µM
[25]
  TGI: > 100 µM
[26]
  TGI: > 100 µM
[27]
  TGI: > 100 µM
[28]
  TGI: > 100 µM
[29]
  TGI: > 100 µM
[30]
  TGI: > 100 µM
[31]
  TGI: > 100 µM
[32]
  TGI: > 100 µM
[33]
  TGI: > 100 µM
[34]
  TGI: > 100 µM
[35]
  TGI: > 100 µM
[36]
  TGI: > 100 µM
[37]
  TGI: > 100 µM
[38]
  TGI: > 100 µM
[39]
  TGI: > 100 µM
[40]
  TGI: > 100 µM
[55]
  TGI: > 100 µM
[41]
  TGI: > 100 µM
[42]
  TGI: > 100 µM
[43]
  TGI: > 100 µM
[44]
  TGI: > 100 µM
[56]
  TGI: > 100 µM
[45]
  TGI: > 100 µM
[46]
  TGI: > 100 µM
[57]
  TGI: > 100 µM
[58]
  TGI: > 100 µM
[47]
  TGI: > 100 µM
[48]
  TGI: > 100 µM
[49]
  TGI: > 100 µM
[59]
  TGI: > 100 µM
[50]
  TGI: > 100 µM
